How the values were obtained:
Conditions in all cases: 72 h
Calu-3 [1] = assay: cell viability relative to DMSO; higher = less toxic
Vero E6 [2] = assay: as above
U2OS [3] = assay: as above
Caco-2 [4] = assay: as above
HepG2 [5] = assay: as above
Calu-3 [6] = assay: drug sensitivity score (DSS) for viability; higher = more toxic; extreme values may be limits of the assay
Vero E6 [7] = assay: as above
U2OS [8] = assay: as above
Caco-2 [9] = assay: as above
HepG2 [10] = assay: as above
Calu-3 [11] = assay: relative viability EC50 (midpoint between 100% and the lowest measured viability); higher = less toxic
U2OS [12] = assay: as above
Vero E6 [13] = assay: as above
Caco-2 [14] = assay: as above
HepG2 [15] = assay: as above

| Compound | cell viability (Calu-3 [1]; 1 nM) [%] | cell viability (Calu-3 [1]; 10 nM) [%] | cell viability (Calu-3 [1]; 100 nM) [%] | cell viability (Calu-3 [1]; 1000 nM) [%] | cell viability (Calu-3 [1]; 10000 nM) [%] | cell viability (Vero E6 [2]; 1 nM) [%] | cell viability (Vero E6 [2]; 10 nM) [%] | cell viability (Vero E6 [2]; 100 nM) [%] | cell viability (Vero E6 [2]; 1000 nM) [%] | cell viability (Vero E6 [2]; 10000 nM) [%] | cell viability (U2OS [3]; 1 nM) [%] | cell viability (U2OS [3]; 10 nM) [%] | cell viability (U2OS [3]; 100 nM) [%] | cell viability (U2OS [3]; 1000 nM) [%] | cell viability (U2OS [3]; 10000 nM) [%] | cell viability (Caco-2 [4]; 1 nM) [%] | cell viability (Caco-2 [4]; 10 nM) [%] | cell viability (Caco-2 [4]; 100 nM) [%] | cell viability (Caco-2 [4]; 1000 nM) [%] | cell viability (Caco-2 [4]; 10000 nM) [%] | cell viability (HepG2 [5]; 1 nM) [%] | cell viability (HepG2 [5]; 10 nM) [%] | cell viability (HepG2 [5]; 100 nM) [%] | cell viability (HepG2 [5]; 1000 nM) [%] | cell viability (HepG2 [5]; 10000 nM) [%] | drug sensitivity score (Calu-3 [6]) | drug sensitivity score (Vero E6 [7]) | drug sensitivity score (U2OS [8]) | drug sensitivity score (Caco-2 [9]) | drug sensitivity score (HepG2 [10]) | relative viability EC50 (Calu-3 [11]) [µM] | relative viability EC50 (U2OS [12]) [µM] | relative viability EC50 (Vero E6 [13]) [µM] | relative viability EC50 (Caco-2 [14]) [µM] | relative viability EC50 (HepG2 [15]) [µM] |
| --- | --- | --- | --- | --- | --- | --- | --- | --- | --- | --- | --- | --- | --- | --- | --- | --- | --- | --- | --- | --- | --- | --- | --- | --- | --- | --- | --- | --- | --- | --- | --- | --- | --- | --- | --- |
| C[C@H]1[C@H](OC(=O)CCC(=O)O)O[C@@H]2O[C@@]3(C)CC[C@H]4[C@H](C)CC[C@@H]1[C@@]24OO3 [artesunate] | 104 | 98.3 | 114 | 107 | 88 | 97.4 | 97.8 | 96.5 | 98.5 | 69.2 | 102 | 100 | 100 | 81 | 35.3 | 102 | 96.1 | 98.3 | 98.3 | 73 | 91.9 | 96.5 | 94.5 | 88.3 | 65.2 | 0 | 1.6 | 6.4 | 1.3 | 2.8 | > 10 | 1.42 | – | – | – |
| Cc1cc2c(F)c(Oc3ncnn4cc(OC[C@@H](C)OC(=O)[C@H](C)N)c(C)c34)ccc2[nH]1 [brivanib-alaninate] | 90.8 | 103 | 95.3 | 102 | 86.5 | 93.1 | 96 | 96.5 | 90.9 | 88.2 | 94.2 | 101 | 92.5 | 101 | 73.1 | 91.8 | 98.5 | 88.2 | 101 | 86.3 | – | – | – | – | – | 0.1 | 0 | 1 | 0.1 | – | > 10 | – | > 10 | > 10 | – |
| O=C(/C=C/c1ccc(O)c(O)c1)c1ccc(O)cc1O [butein] | 100 | 103 | 97.2 | 112 | 92.7 | 103 | 101 | 102 | 99.6 | 101 | 93.8 | 101 | 94.9 | 96.9 | 75.9 | 95.5 | 103 | 101 | 92 | 61.9 | 99.3 | 103 | 104 | 93.4 | 58.4 | 0 | 0 | 1.4 | 3.2 | 3.2 | > 10 | > 10 | > 10 | – | – |
| C[N+](C)(C)CCOC(N)=O [carbachol] | 95 | 102 | 94 | 97.8 | 100 | 101 | 98.4 | 97.3 | 97.2 | 99 | 107 | 107 | 98.3 | 103 | 98.3 | 93.6 | 98.2 | 106 | 99.1 | 106 | – | – | – | – | – | 0 | 0 | 0 | 0 | – | > 10 | > 10 | > 10 | > 10 | – |
| CC(C)[C@@H](C)/C=C/[C@@H](C)[C@H]1CC[C@H]2C3=CC=C4C[C@@H](O)CC[C@]4(C)[C@H]3CC[C@]12C [ergosterol] | – | – | – | – | – | 95.7 | 103 | 94.7 | 102 | 95.5 | 103 | 96.7 | 97.8 | 94.7 | 102 | – | – | – | – | – | 92 | 102 | 96.5 | 104 | 95 | – | 0 | 0 | – | 0 | – | > 10 | > 10 | – | > 10 |
| O=C(O)CN(CCN(CC(=O)O)CC(=O)O)CC(=O)O [ethylenediaminetetraacetic-acid] | – | – | – | – | – | – | – | – | – | – | – | – | – | – | – | – | – | – | – | – | – | – | – | – | – | 0 | 0 | 0 | – | 0 | – | – | – | – | – |
| CCCCc1nc(C)c(CC(=S)N(C)C)c(=O)n1Cc1ccc(-c2ccccc2-c2nnn[nH]2)cc1 [fimasartan] | 94.9 | 99.5 | 128 | 94.4 | 115 | 98 | 95.8 | 93 | 101 | 106 | 107 | 96.6 | 102 | 101 | 104 | 94.2 | 89.4 | 90.8 | 96.9 | 113 | – | – | – | – | – | 0 | 0 | 0 | 0 | – | > 10 | > 10 | > 10 | > 10 | – |
| OC[C@H]1O[C@@H](Oc2cc3c(O)cc(O)cc3[o+]c2-c2ccc(O)c(O)c2)[C@H](O)[C@@H](O)[C@@H]1O [kuromanin] | 98.7 | 111 | 89.7 | 102 | 98.8 | 103 | 102 | 103 | 98 | 94.4 | 96.6 | 99.8 | 96.6 | 99.5 | 93.6 | 98.3 | 95.4 | 86.5 | 100 | 96.7 | – | – | – | – | – | 0 | 0 | 0 | 0 | – | > 10 | > 10 | > 10 | > 10 | – |
| COc1ccccc1OCC(O)COC(N)=O (configuration not stated) [methocarbamol] | – | – | – | – | – | – | – | – | – | – | – | – | – | – | – | 102 | 98.4 | 98.3 | 103 | 100 | – | – | – | – | – | – | – | – | 0 | – | – | – | – | > 10 | – |
| CC(C)[C@H]1CC[C@H](C(=O)N[C@H](Cc2ccccc2)C(=O)O)CC1 [nateglinide] | – | – | – | – | – | 99.7 | 97 | 92.9 | 93.8 | 94.1 | – | – | – | – | – | 92.7 | 95.6 | 105 | 106 | 96.7 | – | – | – | – | – | – | 0 | – | 0 | – | – | – | > 10 | > 10 | – |
| NC(=O)OCCCc1ccccc1 [phenprobamate] | – | – | – | – | – | – | – | – | – | – | 102 | 98.6 | 103 | 102 | 98.9 | 104 | 95.4 | 99.1 | 102 | 104 | 105 | 109 | 95 | 98.6 | 112 | – | – | 0 | 0 | 0 | – | > 10 | – | > 10 | > 10 |
| CCc1ccc(CCOc2ccc(CC3SC(=O)NC3=O)cc2)nc1 (configuration not stated) [pioglitazone] | 94.9 | 98.1 | 95.1 | 106 | 84.1 | 99 | 101 | 98.9 | 83 | 85.5 | 94.8 | 94.7 | 96 | 97.8 | 95.8 | 93.1 | 100 | 98.6 | 92.4 | 91.5 | – | – | – | – | – | 0.1 | 2 | 0 | 0 | – | > 10 | > 10 | > 10 | > 10 | – |
| NCCNc1ccc(NCCN)c2c1C(=O)c1ccncc1C2=O [pixantrone] | 93.4 | 120 | 95.4 | 102 | 82.5 | 104 | 104 | 104 | 94.4 | 97 | 100 | 101 | 96.5 | 103 | 87.2 | 87.4 | 105 | 96.7 | 88.1 | 74.9 | 100 | 94.8 | 98.9 | 90.2 | 62.9 | 0.3 | 0 | 0 | 1.9 | 3.3 | > 10 | > 10 | > 10 | – | – |
| CCOC(=O)[C@H](C)C[C@@H](Cc1ccc(-c2ccccc2)cc1)NC(=O)CCC(=O)O [sacubitril] | 91.6 | 96.6 | 99.4 | 97.3 | 98.5 | 93.6 | 106 | 91.3 | 94.5 | 107 | 101 | 98.5 | 96 | 97.3 | 97.5 | 94.4 | 95.3 | 101 | 92.5 | 100 | – | – | – | – | – | 0 | 0 | 0 | 0 | – | > 10 | > 10 | > 10 | > 10 | – |
| O=C1NC(=O)[C@@]2(CCOc3ccc(F)cc32)N1 [sorbinil] | 103 | 120 | 87.5 | 113 | 102 | – | – | – | – | – | 96.7 | 105 | 97 | 102 | 96.5 | – | – | – | – | – | – | – | – | – | – | 0 | – | 0 | – | – | > 10 | > 10 | – | – | – |
| Cc1ccc(C(=O)c2cc(O)c(O)c([N+](=O)[O-])c2)cc1 [tolcapone] | – | – | – | – | – | 109 | 102 | 99.8 | 100 | 104 | – | – | – | – | – | – | – | – | – | – | 106 | 117 | 105 | 109 | 97.2 | – | 0 | – | – | 0 | – | – | > 10 | – | > 10 |
| Cc1cc(Nc2cc(N3CCN(C)CC3)nc(Sc3ccc(NC(=O)C4CC4)cc3)n2)n[nH]1 [tozasertib] | 110 | 97.6 | 96.8 | 89.1 | 70.9 | 107 | 107 | 100 | 84.2 | 85 | 105 | 101 | 101 | 86.2 | 54.9 | 97.1 | 91.1 | 96.2 | 97.7 | 77.9 | 103 | 99.2 | 70.4 | 72.4 | 36.4 | 2.2 | 1.6 | 4.4 | 1.1 | 9.1 | – | – | > 10 | > 10 | 0.448 |
| COc1ccc(/C=C/C(=O)Nc2ccccc2C(=O)O)cc1OC [tranilast] | 91.9 | 107 | 88.3 | 95.9 | 93.1 | – | – | – | – | – | 97.2 | 97.3 | 93.2 | 99.8 | 96 | 96.9 | 97 | 95.3 | 103 | 93.3 | – | – | – | – | – | 0 | – | 0 | 0 | – | > 10 | > 10 | – | > 10 | – |
| N#Cc1ccc2[nH]cc(CCCCN3CCN(c4ccc5oc(C(N)=O)cc5c4)CC3)c2c1 [vilazodone] | 87.5 | 88.7 | 74.5 | 93.6 | 86.6 | 92.7 | 99.6 | 95.3 | 91.2 | 71.6 | 99.4 | 108 | 97.7 | 101 | 92 | 96.6 | 106 | 104 | 101 | 83 | 107 | 99.9 | 99.5 | 95.9 | 66.4 | 0 | 2 | 0 | 0.3 | 2.2 | > 10 | > 10 | – | > 10 | – |
